{
  "source": "paper PMC5556019",
  "about": "“Targeting Apolipoprotein E/Amyloid β Binding by Peptoid CPO_Aβ17-21 P Ameliorates Alzheimer’s Disease Related Pathology and Cognitive Decline” (Scientific Reports, 2017)",
  "key": {"apoE4/Aβ42 binding": {"molecular_target": "T1, apoE4/Aβ42 binding (Homo sapiens, UniProt P02649, C130R)", "T1 construct": "purchased BioVision (Milpitas, CA)", "T1 sequence (P02649 19-317 C130R)": "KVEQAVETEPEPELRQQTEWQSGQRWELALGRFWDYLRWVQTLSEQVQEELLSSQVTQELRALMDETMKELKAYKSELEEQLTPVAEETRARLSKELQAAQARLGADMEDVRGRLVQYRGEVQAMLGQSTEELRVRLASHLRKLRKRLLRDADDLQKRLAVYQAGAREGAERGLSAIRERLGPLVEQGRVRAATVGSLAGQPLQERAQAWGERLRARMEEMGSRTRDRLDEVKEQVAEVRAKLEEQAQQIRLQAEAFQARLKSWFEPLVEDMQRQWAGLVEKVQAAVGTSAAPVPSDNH", "assay": "Surface plasmon resonance assay of apoE4/Aβ42 binding inhibition", "experimental": "Experiments were performed using a Reichert SR7000DC refractometer system (Reichert, New York) equipped with a CM5 sensor chip. Acetate buffer was used for immobilization of the peptide Aβ42 (ligand). […] Importantly, Aβ42 species are considered critical for seeding of amyloid deposits, [32]. CM-dextran on a CM5 gold sensor chip was activated by injecting a solution of 10 mg/mL N-Hydroxysuccinimide (NHS) and 40 mg/mL 1-Ethyl-3-(3-dimethylaminopropyl) carbodiimide (EDC) over the sensor chip surface for 7 min at a flow rate of 20 µL/min. Then the ligand, 50 µg/mL HFIP treated synthetic peptide Aβ42 in 10 mM sodium acetate, pH 4.5, was immobilized by injection over the surface for 20 min. The unreacted sites on the sensor chip surface were blocked by injection of 1 M ethanolamine, pH 8.5 for 10 min. […] After each binding cycle the surface was regenerated by a short, fast injection of 10 mM hydrochloric acid. To verify results analytes containing lipidated human apoE4 molecules or lipidated human apoE3 molecules incubated with peptoid inhibitors in phosphate buffered saline with 0.05% TWEEN 20, pH 7.4 (PBST) were tested and the association and dissociation reactions were monitored."}, "[1]": {"assay": "Thioflavin T aggregation assay, peptoid incubated alone", "assay_type": "physicochemical", "settings": "up to 100 µM, 37 °C, 10 days, 100 mM Tris buffer pH 7.4", "experimental": "Peptide Aβ42 or peptoid CPO_Aβ17-21 P were incubated alone at a concentration of 100 µM over a period of 7–10 days at 37 °C in 100 mM Tris buffer (pH 7.4). […] In aggregation inhibition experiments, apoE4 was pre-incubated with CPO_Aβ17-21 P in a molar ratio of 1:2 for 6 hrs at 37 °C followed by addition to freshly reconstituted Aβ42 on ice (molar ratio 100:1:2, Aβ42:apoE4:peptoid). As a control, Aβ42 was also incubated with CPO_Aβ17-21 P at a molar ratio of 100:2. For peptide Aβ40 all the experiments were conducted under the same conditions as Aβ42 except the peptide concentration was 400 µM. The molar ratio of Aβ40:apoE4:CPO_Aβ17-21 P was 100:1:2. (400 µM Aβ40:4 µM apoE4:8 µM CPO_Aβ17-21 P). Fibril formation by the different peptides at various time points was evaluated by a standard Thioflavin-T assay according to previously published protocols, [33].The samples were diluted in buffer containing 50 mM glycine, 2 µM Thioflavin T pH 9.2, and read on a Molecular Devices SpectraMax M2 spectrophotometer (Sunnyvale, CA) at excitation and emission wavelengths 440 and 482 nm."}, "APP/PS1 Tg mice": {"system": "APP/PS1 Tg mice", "assay": "Total amyloid burden by 6E10/4G8 immunohistochemistry", "assay_type": "in vivo, mouse", "settings": "one-tailed unpaired t-test", "experimental": "The effect of CPO_Aβ17-21 P on Aβ deposition was tested in APP/PS1 Tg mice with plaque pathology. This AD mouse model develops plaque pathology from the age of 3 months. Animals were divided into two groups and received intraperitoneally (i.p.) injections of 0.2 mg of CPO_ Aβ17–21 P per mouse in sterile saline (n = 11, 5 male, 6 female) or saline alone (n = 10, 5 male, 5 female) as a control twice weekly for 4 months, beginning at age 3 months. During the treatment, veterinary staff monitored animals for any signs of toxicity, such as changes in body weight, physical appearance, and altered behavior. Animals were sacrificed a week after administration of the last treatment dose and behavioral testing. […]\nMice were anesthetized with sodium pentobarbital (150 mg/kg, i.p.) and blood was collected via cardiac puncture and plasma was separated by centrifugation. […] To examine brain inflammation levels associated with treatment, we assessed the degree of astrocytosis with GFAP immunoreactivity and the degree of microgliosis with Iba1 and CD11b immunoreactivity as previously published, [37], [39], [40]. […]\nAmyloid burden was measured by a Bioquant stereology (BIOQUANT Image Analysis Corporation, Nashville, TN) semi-automated image analysis system using a randomized and unbiased sampling scheme according to our previous published protocol, [19], [37], [39], [40]. […]"}},
  "note": "Numbered stars: 1 amine (or outer) side, 2 acyl side, 3 side chain; on linkers, the order of the positions; unused ones are H or OH. Bridge positions count the residues as written; N and C are the ends. Square brackets hold non-standard residues; d marks the D form. Peptide text beside a SMILES is read from it. ξ: configuration not given here. N(CH2CH2CO)Gly = O=C(CN(CCC(=O)[*:3])[*:1])[*:2]; Nphe = O=C(O)CNCc1ccccc1; Nleu = CC(C)CNCC(=O)O; ξP = O=C(O)C1CCCN1; Sar = CNCC(=O)O",
  "data": [
    {"smiles": "CC(C)CN1CC(=O)N2CCCC2C(=O)N(Cc2ccccc2)CC(=O)N(Cc2ccccc2)CC(=O)N(C)CC(=O)N(CC(N)=O)CCC1=O", "note": "(stereo not shown) [CPO_Aβ17-21 P] ([Nleu][ξP][Nphe][Nphe][Sar][N(CH2CH2CO)Gly]-NH2; lactam N-6)", "values": [
      {"measurement": "inhibition of apoE4/Aβ42 binding", "setting": "apoE4/Aβ42 binding; SPR, 2:1 molar ratio (peptoid:apoE4)", "result": 50, "unit": "%"},
      {"measurement": "inhibition of apoE4/Aβ42 binding", "setting": "apoE4/Aβ42 binding; SPR, 8:1 molar ratio (peptoid:apoE4)", "result": "near complete inhibition"},
      {"measurement": "inhibition of apoE4/Aβ42 binding (library screen)", "setting": "apoE4/Aβ42 binding; SPR, immobilised Aβ42, recombinant human apoE4 pre-incubated with peptoid, PBST pH 7.4", "result": "inhibited apoE4/Aβ42 binding"},
      {"measurement": "IC50", "setting": "apoE4/Aβ42 binding; one-site competition nonlinear regression, Fig. 1d legend: lipidated apoE/Aβ binding, read-out: half-maximal inhibition (IC50) of apoE/Aβ binding", "result": 1.02, "unit": "nM"},
      {"measurement": "formation of aggregates or fibrils by the peptoid alone", "setting": "[1]", "result": "did not produce aggregates or fibrils"},
      {"measurement": "total amyloid burden (6E10/4G8 immunoreactivity), cortex", "setting": "APP/PS1 Tg mice; p = 0.0226 versus vehicle", "result": "significant reduction"},
      {"measurement": "total amyloid burden (6E10/4G8 immunoreactivity), hippocampus", "setting": "APP/PS1 Tg mice; p = 0.0361 versus vehicle", "result": "significant reduction"}
    ]}
  ]
}
